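Cells were grown in 96-well plates and exposed to each compound for 48 hours at five concentrations; endpoints were interpolated linearly between bracketing concentrations, or set to the highest concentration if not reached. GI50 marks 50% less growth.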 Calls of active or inactive are those of the source. No stated cut-off is given here; in the data, active = GI50 up to about 1.1 µM and inactive = higher.
Tests used:
Assay in all cases: growth of human tumour cells (NCI), 48 h
CCRF-CEM = system: CCRF-CEM
IGROV-1 = system: IGROV-1
OVCAR-5 = system: OVCAR-5
UO-31 = system: UO-31
UACC-62 = system: UACC-62
A549 = system: A549
SR = system: SR
DMS-273 = system: DMS-273
M14 = system: M14
HOP-62 = system: HOP-62
SK-OV-3 = system: SK-OV-3
NCI-H226 = system: NCI-H226
KM12 = system: KM12
RXF 393 = system: RXF 393
U-251 = system: U-251
HL-60 = system: HL-60
SF-268 = system: SF-268
A498 = system: A498
K562 = system: K562
NCI-H460 = system: NCI-H460
HOP-92 = system: HOP-92
TK-10 = system: TK-10
NCI-H522 = system: NCI-H522
EKVX = system: EKVX
SK-MEL-28 = system: SK-MEL-28
HT-29 = system: HT-29
MOLT-4 = system: MOLT-4
SNB-19 = system: SNB-19
SNB-78 = system: SNB-78
M19-MEL = system: M19-MEL
NCI-H23 = system: NCI-H23
HCT-15 = system: HCT-15
SW-620 = system: SW-620
DMS-114 = system: DMS-114
OVCAR-3 = system: OVCAR-3
LOX IMVI = system: LOX IMVI
Malme-3M = system: Malme-3M
SNB-75 = system: SNB-75
HCT-116 = system: HCT-116
SN12C = system: SN12C
SK-MEL-5 = system: SK-MEL-5
HOP-18 = system: HOP-18
UACC-257 = system: UACC-257
OVCAR-8 = system: OVCAR-8
DLD-1 = system: DLD-1
SF-539 = system: SF-539
HCC 2998 = system: HCC 2998
CAKI-1 = system: CAKI-1
SF-295 = system: SF-295
ACHN = system: ACHN
OVCAR-4 = system: OVCAR-4
SK-MEL-2 = system: SK-MEL-2
COLO 205 = system: COLO 205
RPMI-8226 = system: RPMI-8226
786-0 = system: 786-0
KM-20L2 = system: KM-20L2
LXFL 529 = system: LXFL 529
NCI/ADR-RES = system: NCI/ADR-RES
T47D = system: T47D
MCF7 = system: MCF7
DU-145 = system: DU-145
PC-3 = system: PC-3
MDA-MB-231 = system: MDA-MB-231
Hs-578T = system: Hs-578T
MDA-N = system: MDA-N
MDA-MB-435 = system: MDA-MB-435
BT-549 = system: BT-549

Measured: GI50

N#CC1Sc2ccccc2-n2cccc21 (stereo unspecified)
inactive: CCRF-CEM 70.8 µM | IGROV-1 > 100 µM | OVCAR-5 24.3 µM | UO-31 25.4 µM | UACC-62 30.3 µM | A549 45 µM | SR 37.6 µM | DMS-273 44 µM | M14 > 100 µM | HOP-62 > 100 µM | SK-OV-3 67.3 µM | NCI-H226 4.98 µM | KM12 85.7 µM | RXF 393 23.2 µM | U-251 > 100 µM | HL-60 22.8 µM | SF-268 25.1 µM | A498 67.6 µM | K562 26.7 µM | NCI-H460 > 100 µM | HOP-92 42.6 µM | TK-10 80 µM | NCI-H522 36.1 µM | EKVX 61.2 µM | SK-MEL-28 > 100 µM | HT-29 > 100 µM | MOLT-4 58.9 µM | SNB-19 > 100 µM | SNB-78 34.7 µM | M19-MEL > 100 µM | NCI-H23 63.7 µM

O=C(C#Cc1cnc(O)nc1O)c1ccccc1Cl
inactive: SW-620 14.2 µM | CCRF-CEM 3.94 µM | IGROV-1 19.5 µM | OVCAR-5 19.7 µM | DMS-114 21.9 µM | UO-31 21 µM | UACC-62 16.4 µM | OVCAR-3 14.2 µM | LOX IMVI 13.4 µM | A549 79.1 µM | Malme-3M 13.3 µM | SNB-75 19.9 µM | HCT-116 14.4 µM | DMS-273 19.1 µM | M14 15.5 µM | HOP-62 > 100 µM | SK-OV-3 51.3 µM | SN12C 14.1 µM | NCI-H226 28.8 µM | SK-MEL-5 15 µM | KM12 29.6 µM | RXF 393 3.07 µM | U-251 17.9 µM | HL-60 13.3 µM | HOP-18 20 µM | UACC-257 14.7 µM | SF-268 20.7 µM | A498 17.9 µM | K562 4.83 µM | NCI-H460 24.3 µM | OVCAR-8 15.2 µM | HOP-92 19.7 µM | TK-10 21.6 µM | DLD-1 15.5 µM | SF-539 16.3 µM | EKVX 20 µM | HCC 2998 16.9 µM | CAKI-1 17.1 µM | SF-295 > 100 µM | SK-MEL-28 17.9 µM | HT-29 36.4 µM | ACHN 17.3 µM | OVCAR-4 17.4 µM | SK-MEL-2 16.2 µM | COLO 205 15.7 µM | MOLT-4 10.3 µM | SNB-19 52.6 µM | SNB-78 24.8 µM | RPMI-8226 23.9 µM | 786-0 18 µM | NCI-H23 17.1 µM
15 µM: HCT-15

Cc1nnc2n1N=C(c1ccc(-c3ccc([N+](=O)[O-])cc3)o1)CS2
> 100 µM: HCT-15
inactive: SW-620 > 100 µM | IGROV-1 > 100 µM | OVCAR-5 > 100 µM | KM-20L2 > 100 µM | UO-31 > 100 µM | UACC-62 > 100 µM | OVCAR-3 > 100 µM | LOX IMVI > 100 µM | A549 > 100 µM | Malme-3M > 100 µM | SNB-75 > 100 µM | SR > 100 µM | HCT-116 > 100 µM | DMS-273 > 100 µM | M14 > 100 µM | HOP-62 > 100 µM | SK-OV-3 > 100 µM | SN12C > 100 µM | LXFL 529 > 100 µM | NCI-H226 > 100 µM | KM12 > 100 µM | U-251 > 100 µM | HL-60 > 100 µM | UACC-257 > 100 µM | SF-268 > 100 µM | K562 > 100 µM | NCI-H460 > 100 µM | OVCAR-8 > 100 µM | HOP-92 > 100 µM | TK-10 > 100 µM | DLD-1 > 100 µM | SF-539 > 100 µM | NCI-H522 > 100 µM | HCC 2998 > 100 µM | CAKI-1 > 100 µM | SF-295 > 100 µM | SK-MEL-28 > 100 µM | ACHN > 100 µM | OVCAR-4 > 100 µM | SK-MEL-2 > 100 µM | COLO 205 > 100 µM | MOLT-4 > 100 µM | SNB-19 > 100 µM | SNB-78 > 100 µM | RPMI-8226 > 100 µM | M19-MEL > 100 µM | 786-0 > 100 µM | NCI-H23 35.1 µM

Cc1nc(=O)[nH]c2[nH][nH]c(=O)c12
inactive: SW-620 > 100 µM | CCRF-CEM > 100 µM | IGROV-1 > 100 µM | OVCAR-5 > 100 µM | DMS-114 > 100 µM | UACC-62 > 100 µM | OVCAR-3 > 100 µM | LOX IMVI > 100 µM | A549 > 100 µM | Malme-3M > 100 µM | SR > 100 µM | HCT-116 > 100 µM | M14 > 100 µM | HOP-62 > 100 µM | SK-OV-3 > 100 µM | SN12C > 100 µM | LXFL 529 > 100 µM | NCI-H226 > 100 µM | KM12 > 100 µM | RXF 393 > 100 µM | U-251 > 100 µM | HL-60 > 100 µM | HOP-18 > 100 µM | SF-268 > 100 µM | K562 > 100 µM | NCI-H460 > 100 µM | OVCAR-8 > 100 µM | HOP-92 > 100 µM | TK-10 > 100 µM | SF-539 > 100 µM | NCI-H522 > 100 µM | EKVX > 100 µM | CAKI-1 > 100 µM | SF-295 > 100 µM | SK-MEL-28 > 100 µM | HT-29 > 100 µM | ACHN > 100 µM | OVCAR-4 > 100 µM | SK-MEL-2 > 100 µM | COLO 205 > 100 µM | MOLT-4 > 100 µM | RPMI-8226 > 100 µM | M19-MEL > 100 µM | 786-0 > 100 µM | NCI-H23 > 100 µM
> 100 µM: HCT-15

N=C(N)/N=C(\N)Nc1ccc(C(=O)O)cc1
inactive: NCI/ADR-RES > 100 µM | T47D > 100 µM | SW-620 > 100 µM | CCRF-CEM > 100 µM | IGROV-1 > 100 µM | OVCAR-5 > 100 µM | UO-31 > 100 µM | UACC-62 > 100 µM | OVCAR-3 > 100 µM | LOX IMVI > 100 µM | A549 > 100 µM | Malme-3M > 100 µM | SNB-75 > 100 µM | SR > 100 µM | HCT-116 > 100 µM | M14 > 100 µM | HOP-62 > 100 µM | SK-OV-3 > 100 µM | SN12C 43.1 µM | NCI-H226 > 100 µM | SK-MEL-5 > 100 µM | KM12 > 100 µM | RXF 393 > 100 µM | U-251 > 100 µM | HL-60 > 100 µM | UACC-257 > 100 µM | MCF7 > 100 µM | SF-268 > 100 µM | A498 > 100 µM | K562 > 100 µM | NCI-H460 > 100 µM | OVCAR-8 > 100 µM | HOP-92 > 100 µM | TK-10 > 100 µM | DU-145 > 100 µM | SF-539 > 100 µM | NCI-H522 > 100 µM | EKVX > 100 µM | PC-3 > 100 µM | HCC 2998 > 100 µM | MDA-MB-231 > 100 µM | CAKI-1 > 100 µM | Hs-578T > 100 µM | SF-295 > 100 µM | SK-MEL-28 > 100 µM | HT-29 > 100 µM | ACHN > 100 µM | MDA-N > 100 µM | OVCAR-4 > 100 µM | SK-MEL-2 > 100 µM | COLO 205 > 100 µM | MOLT-4 > 100 µM | MDA-MB-435 > 100 µM | SNB-19 > 100 µM | RPMI-8226 > 100 µM | 786-0 > 100 µM | BT-549 > 100 µM | NCI-H23 > 100 µM
> 100 µM: HCT-15

COc1cc(CNc2ccc(SC)cc2)cc(OC)c1OC
inactive: NCI/ADR-RES 3.78 µM | SW-620 4.02 µM | CCRF-CEM 12.2 µM | OVCAR-5 32.1 µM | KM-20L2 4.3 µM | DMS-114 5.15 µM | UO-31 20 µM | OVCAR-3 7.26 µM | LOX IMVI 9.42 µM | A549 10 µM | Malme-3M 11 µM | HCT-116 6.93 µM | DMS-273 3.08 µM | M14 4.38 µM | LXFL 529 18.4 µM | HL-60 4.84 µM | HOP-18 33.5 µM | MCF7 5.69 µM | A498 22 µM | NCI-H460 7.1 µM | NCI-H522 4.92 µM | EKVX 49.7 µM | PC-3 12.4 µM | Hs-578T 12.4 µM | HT-29 4.39 µM | OVCAR-4 46.9 µM | SK-MEL-2 4.88 µM | COLO 205 4.48 µM | MOLT-4 4.85 µM | SNB-78 48.3 µM | RPMI-8226 11.9 µM | 786-0 14.6 µM | BT-549 3.18 µM
4.08 µM: HCT-15
